Results as given in article PMC6678576, “Spectroscopic Characterisation of the Naphthalene Dioxygenase from Rhodococcus sp. Strain NCIMB12038” (International Journal of Molecular Sciences, 2019).

Biological target: T1, naphthalene 1,2-dioxygenase (NDO; ISPNAR) from Rhodococcus sp. strain NCIMB12038 (Rhodococcus sp. NCIMB 12038, UniProt Q9X3R9)
T1 construct: gene narAa; native oxygenase component purified from naphthalene-grown Rhodococcus cells; alpha3beta3; Rieske [2Fe-2S] and mononuclear iron; with Naphthalene 1,2-dioxygenase small (beta) subunit
T1 sequence (Q9X3R9 1-470): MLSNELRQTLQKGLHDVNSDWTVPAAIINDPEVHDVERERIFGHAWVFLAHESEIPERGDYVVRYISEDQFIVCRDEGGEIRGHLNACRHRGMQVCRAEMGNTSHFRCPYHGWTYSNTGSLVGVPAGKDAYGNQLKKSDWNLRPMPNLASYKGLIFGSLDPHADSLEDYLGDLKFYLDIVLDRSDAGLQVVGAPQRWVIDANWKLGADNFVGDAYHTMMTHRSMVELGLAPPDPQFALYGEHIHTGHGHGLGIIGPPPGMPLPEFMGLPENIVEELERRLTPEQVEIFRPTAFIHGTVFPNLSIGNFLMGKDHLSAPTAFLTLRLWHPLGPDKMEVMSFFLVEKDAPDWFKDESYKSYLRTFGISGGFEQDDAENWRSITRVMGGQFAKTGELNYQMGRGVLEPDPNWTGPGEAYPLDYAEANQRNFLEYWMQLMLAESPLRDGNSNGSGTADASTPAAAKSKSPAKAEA
T1 sequence (Q7BSK6 1-172 partner): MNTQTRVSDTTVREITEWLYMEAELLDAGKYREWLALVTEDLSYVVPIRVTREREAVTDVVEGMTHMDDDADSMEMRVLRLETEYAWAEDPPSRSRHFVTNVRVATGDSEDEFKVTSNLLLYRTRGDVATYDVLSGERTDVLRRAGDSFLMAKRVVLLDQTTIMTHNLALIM
Assay: EPR ([…] K) and UV-Vis of single turnover and peroxide shunt
Type: binding
Details: dithionite-reduced NDO with O2-saturated naphthalene, or H2O2 peroxide shunt; no reductase or ferredoxin; 50 mM Tris-HCl pH 7.8, 10% ethanol, 10% glycerol, 0.5 mM DTT

Structure (SMILES): c1ccc2ccccc2c1 [naphthalene]
- EPR (20 K) and UV-Vis of single turnover and peroxide shunt: NDO, with reduced Rieske and mononuclear iron centres, is able to react with naphthalene
